# Data reported in US10537602B2, “Feed for fish” (NUTRECO IP ASSETS B.V., priority 2006, dated 2020).
# What was measured:
# Type in all cases: in vivo
# [1] = test system: Atlantic salmon (Salmo salar); assay: Example 1 feeding study: growth and feed conversion of fish on feed with carvacrol or Salvia officinalis extract; settings: for Final weight / Feed conversion ratio / Specific growth rate: 67 days, triplicate, Salvia = Salvia officinalis extract; for Final weight: initial weight about 170 g, sea water 11.8° C.
# Experimental: (§1) Growth rate is expressed as percentage increase in body mass from day to day (Specific Growth Rate, SGR). This is calculated as:
# (§2) [formula] FinalW=final weight InitW=initial weight Days=time from measuring initial weight to final weight
# (§3) The common term to describe this is Feed Conversion Ratio (FCR) defined as: FCR=Amount of feed fed (kg)/Net growth of the fish (kg)
# A control feed was prepared from fish meal (407.4 g), soybean meal (55.8 g), corn gluten (196.1 g), wheat (88.0 g), fish oil (247.3 g), mineral and vitamin premixes (3.8 g), yttrium premix (1.0 g, used to measure lipid digestibility as discussed below) and astaxanthin preparation (0.6 g). Pellets were extruded using the process explained above and coated with the fish oil.
# Test feeds containing 0.1 wt % and 0.2 wt % carvacrol formulation (containing 50 wt % carvacrol and 50 wt % silica carrier) were prepared. The amount of active substance was 500 and 1000 mg per kg feed, respectively. In the comparison feeds, the amount of wheat was reduced to 87.0 g and 86.0 g respectively. The carvacrol formulation was added with the other microingredients to the mixer before preconditioning.
# Test feeds containing 0.1 wt % and 0.2 wt % formulation of Salvia officinalis salvia extract (containing 50 wt % salvia extract and 50 wt % silica carrier) were prepared in a similar way.
# The feed was fed to Atlantic salmon (Salmo salar) weighing 169 g (±3 g) at the onset of the study. The fish was stocked in tanks (1 m×1 m). There were 30 fish in each tank. Sea water temperature was 11.8° C. (±0.5° C.). The fish were fed for 67 days. The study was run in triplicate.
# [2] = test system: Atlantic salmon (Salmo salar); assay: Example 2 feeding study: growth and feed conversion of fish on feed with carvacrol or Salvia lavandulifolia extract; settings: for Feed conversion ratio / Specific growth rate / Final weight: 82 days, Salvia = Salvia lavandulifolia extract; for Final weight: initial weight about 199 g, sea water 12° C., triplicate
# Experimental: as §1, §2, §3
# (§4) Control and comparison feeds were prepared as in Example 1. Salvia lavandulifolia salvia extract (CAS 8016-65-7) was used.
# (§5) The feed was fed to Atlantic salmon (Salmo salar) weighing 199 g (±2.4 g) at the onset of the study. The fish were stocked in tanks (1 m×1 m). There were 35 fish in each tank. Sea water temperature was 12° C. The fish were fed for 82 days. The study was run in triplicate.
# [3] = test system: Atlantic salmon (Salmo salar); assay: Example 3 apparent digestibility of protein, C16:0, saturated fatty acids and total lipid; settings: for ADC protein (%) / ADC C16:0 (%) / ADC saturated fatty acids (%) / ADC total lipid (%): added as 100% oil, 96 days, one tank, Salvia lavandulifolia; for ADC protein (%): 8.9° C.
# Experimental: (§6) To achieve the above objects, additives that can increase the digestibility of fat and or protein are of value. This can be measured by the “Apparent Digestibility Coefficient”, calculated as: […]
# (§7) Yttrium is added to the diet for the purpose of calculating ADC, but is otherwise not a necessary component of fish feed.
# Control feed was prepared from South-American fish meal (526.2 g), soybean meal (40.0 g), corn gluten (79.0 g), wheat (120.4 g), South-American fish oil (230.3 g), mineral and vitamin premixes (2.5 g), yttrium premix (1.0 g), and astaxanthin preparation (0.6 g). Pellets were extruded using the process explained above and coated with the fish oil.
# Test feeds were prepared containing carvacrol and/or salvia extract (Salvia lavandulifolia). Carvacrol and/or salvia extract were each added as 100% oil. Two different inclusion levels of separate carvacrol and salvia extract (0.5 g/kg and 1.0 g/kg) were tested.
# Two test feeds were prepared with a combination of carvacrol and salvia extract. The inclusion levels were 1.0 g carvacrol and 0.2 g/kg salvia extract, and 0.5 g/kg carvacrol and 0.5 g/kg salvia extract, respectively. The carvacrol oil and/or salvia extract was mixed with the fish oil and coated onto the surface of the pellets by vacuum coating after drying of the pellets.
# Pellet size was 3 mm for all feeds.
# The feed was fed to Atlantic salmon (Salmo salar) weighing 156 g (±13 g) at the onset of the study. The fish was stocked in tanks holding 100 L water. There were 25 fish in each tank. Sea water temperature was 8.9° C.±0.2° C. The fish were fed for 96 days. The study was run with four control groups and one tank each for the different inclusion levels of carvacrol, salvia extract or combined carvacrol and salvia.
# Apparent digestibility was determined for protein, the saturated fatty acid C16:0, the sum of all saturated fatty acids and the total lipid.
# [4] = test system: Atlantic salmon (Salmo salar); assay: Example 2 lipid digestibility (Apparent Digestibility Coefficient, yttrium marker); settings: for ADC (%) lipid: Example 2, Salvia = Salvia lavandulifolia extract
# Experimental: as §6, §7, §4, §5
# [5] = with increasing amounts in feed, Example 1, in words
# [6] = with increasing amounts in feed, Example 2, in words
# [7] = with increasing amounts in feed, Example 3, in words
compound,measurement,setting,value
"Cc1ccc(C(C)C)cc1O [Carvacrol, 2-methyl-5(1-methylethyl)-phenol]",Final weight,[1]; 0.05 wt % additive in feed,339 ± 18 g
same,Feed conversion ratio,[1]; 0.05 wt % additive in feed,0.91 ± 0.05
same,Specific growth rate,[1]; 0.05 wt % additive in feed,1.04 ± 0.05
same,Final weight,[1]; 0.1 wt % additive in feed,354 ± 6 g
same,Feed conversion ratio,[1]; 0.1 wt % additive in feed,0.87 ± 0.03
same,Specific growth rate,[1]; 0.1 wt % additive in feed,1.09 ± 0.03
same,feed utilisation,[1]; [5],improved
same,fish growth,[1]; [5],increased
same,Feed conversion ratio,[2]; 0.05 wt % additive in feed,0.68
same,Specific growth rate,[2]; 0.05 wt % additive in feed,1.16
same,Final weight,[2]; 0.05 wt % additive in feed,512 g
same,Feed conversion ratio,[2]; 0.1 wt % additive in feed,0.70
same,Specific growth rate,[2]; 0.1 wt % additive in feed,1.13
same,Final weight,[2]; 0.1 wt % additive in feed,503 g
same,feed utilisation,[2]; [6],improved
same,fish growth,[2]; [6],increased
same,ADC protein (%),[3]; 0.05 wt % additive in feed,88.8%
same,ADC C16:0 (%),[3]; 0.05 wt % additive in feed,75.3%
same,ADC saturated fatty acids (%),[3]; 0.05 wt % additive in feed,75.5%
same,ADC total lipid (%),[3]; 0.05 wt % additive in feed,89.2%
same,ADC protein (%),[3]; 0.10 wt % additive in feed,87.6%
same,ADC C16:0 (%),[3]; 0.10 wt % additive in feed,74.0%
same,ADC saturated fatty acids (%),[3]; 0.10 wt % additive in feed,74.4%
same,ADC total lipid (%),[3]; 0.10 wt % additive in feed,89.2%
same,lipid digestibility,[3]; [7],increased
same,protein digestibility,[3]; [7],increased
same,ADC (%) lipid,[4]; 0.05 wt % additive in feed,95.78%
same,ADC (%) lipid,[4]; 0.1 wt % additive in feed,97.65%
same,lipid digestibility,[4]; [6],increased
